Results: ChEMBL document CHEMBL4321791, “TASK Channels Pharmacology: New Challenges in Drug Design” (J Med Chem, 2019)
Structures can show the parent of a compound that is named as a salt.

What was measured:
[1] = target: T1, Potassium channel subfamily K member 9 (Homo sapiens, UniProt Q9NPC2); experiment: Inhibition of human TASK3 expressed in CHOK1 cells by Ti+ flux assay; assay type: cell-based
[2] = target: T1, Potassium channel subfamily K member 9; experiment: Activation of human TASK3 expressed in Xenopus oocytes at 1 mM by whole cell patch clamp assay relative to control; assay type: cell-based
[3] = target: T2, Potassium channel subfamily K member 3 (Homo sapiens, UniProt O14649); experiment: Activation of human TASK1 expressed in African green monkey COS cells at 1 mM by whole cell patch clamp assay relative to control; assay type: cell-based
Target sequence in this assay (O14649 whole entry, looked up): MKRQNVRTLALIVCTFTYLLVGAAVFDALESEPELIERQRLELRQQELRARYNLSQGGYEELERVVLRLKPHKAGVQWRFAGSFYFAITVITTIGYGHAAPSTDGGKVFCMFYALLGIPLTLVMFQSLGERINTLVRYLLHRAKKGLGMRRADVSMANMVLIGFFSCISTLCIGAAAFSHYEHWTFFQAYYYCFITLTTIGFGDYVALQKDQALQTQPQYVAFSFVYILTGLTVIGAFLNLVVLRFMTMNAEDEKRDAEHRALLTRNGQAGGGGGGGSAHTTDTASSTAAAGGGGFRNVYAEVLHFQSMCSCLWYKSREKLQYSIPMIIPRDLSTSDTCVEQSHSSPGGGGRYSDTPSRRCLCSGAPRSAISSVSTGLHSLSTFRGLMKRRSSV

[4] = target: T2, Potassium channel subfamily K member 3; experiment: Activation of human TASK1 expressed in African green monkey COS cells at 0.1 to 1 mM by whole cell patch clamp assay relative to control; assay type: cell-based
Target sequence in this assay (O14649 whole entry, looked up): as above

[5] = target: T2, Potassium channel subfamily K member 3; experiment: Inhibition of human TASK1 expressed in Xenopus oocytes by whole cell voltage clamp assay; assay type: cell-based
Target sequence in this assay (O14649 whole entry): as the sequence (O14649 whole entry, looked up) above

[6] = target: T1, Potassium channel subfamily K member 9; experiment: Inhibition of human TASK3 expressed in Xenopus oocytes by whole cell voltage clamp assay; assay type: cell-based
[7] = target: T2, Potassium channel subfamily K member 3; experiment: Inhibition of human TASK1 by whole cell voltage clamp assay
Target sequence in this assay (O14649 whole entry): as the sequence (O14649 whole entry, looked up) above

[8] = target: T1, Potassium channel subfamily K member 9; experiment: Inhibition of human TASK3 expressed in HEK293 cells by Ti+ flux assay; assay type: cell-based
[9] = target: T2, Potassium channel subfamily K member 3; experiment: Inhibition of human TASK1 expressed in African green monkey COS7 cells by whole cell patch clamp assay; assay type: cell-based
Target sequence in this assay (O14649 whole entry): as the sequence (O14649 whole entry, looked up) above

[10] = target: Potassium channel subfamily K member 9 (Rattus norvegicus) (UniProt Q9ES08); experiment: Inhibition of rat TASK3 expressed in African green monkey COS7 cells at 100 uM by outside-out patches based electrophysiology assay relative to control; assay type: cell-based
Chain of Potassium channel subfamily K member 9 (Rattus norvegicus) (Q9ES08 whole entry): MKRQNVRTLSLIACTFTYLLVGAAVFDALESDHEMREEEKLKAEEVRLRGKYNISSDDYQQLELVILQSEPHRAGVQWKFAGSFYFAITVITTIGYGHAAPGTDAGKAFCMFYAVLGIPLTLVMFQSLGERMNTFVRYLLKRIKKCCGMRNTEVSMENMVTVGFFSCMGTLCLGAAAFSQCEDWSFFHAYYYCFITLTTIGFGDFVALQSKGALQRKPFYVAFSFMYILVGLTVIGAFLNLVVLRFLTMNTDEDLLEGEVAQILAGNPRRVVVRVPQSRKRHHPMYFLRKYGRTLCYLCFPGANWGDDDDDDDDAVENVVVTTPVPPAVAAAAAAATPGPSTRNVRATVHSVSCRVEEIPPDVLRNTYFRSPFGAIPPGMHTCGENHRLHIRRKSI

[11] = target: T3, Potassium channel subfamily K member 3 (Rattus norvegicus, UniProt O54912); experiment: Inhibition of rat TASK1 expressed in African green monkey COS7 cells by outside-out patches based electrophysiology assay; assay type: cell-based
T3 sequence (O54912 whole entry): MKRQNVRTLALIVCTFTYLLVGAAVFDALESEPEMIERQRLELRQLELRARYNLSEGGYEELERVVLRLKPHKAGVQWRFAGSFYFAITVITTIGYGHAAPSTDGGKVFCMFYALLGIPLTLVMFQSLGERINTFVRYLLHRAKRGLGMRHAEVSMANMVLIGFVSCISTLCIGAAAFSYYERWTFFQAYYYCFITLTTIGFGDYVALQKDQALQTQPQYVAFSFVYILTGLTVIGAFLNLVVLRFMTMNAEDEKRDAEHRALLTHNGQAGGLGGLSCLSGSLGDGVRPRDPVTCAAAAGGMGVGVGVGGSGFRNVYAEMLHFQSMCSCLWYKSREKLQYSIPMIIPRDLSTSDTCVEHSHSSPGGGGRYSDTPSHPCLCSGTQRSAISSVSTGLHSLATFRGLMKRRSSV

[12] = target: T4, Potassium channel subfamily K member 9 (Rattus norvegicus, UniProt Q9ES08); experiment: Inhibition of rat TASK3 expressed in African green monkey COS7 cells by outside-out patches based electrophysiology assay; assay type: cell-based
T4 sequence (Q9ES08 whole entry): as the sequence (Q9ES08 whole entry) above

[13] = target: T2, Potassium channel subfamily K member 3; experiment: Inhibition of human TASK1 expressed in African green monkey COS cells at 0.6 mM by whole cell patch clamp assay relative to control; assay type: cell-based
Target sequence in this assay (O14649 whole entry, looked up): as the sequence (O14649 whole entry, looked up) above

[14] = target: T2, Potassium channel subfamily K member 3; experiment: Inhibition of human TASK1 expressed in African green monkey COS cells by whole cell patch clamp assay; assay type: cell-based
Target sequence in this assay (O14649 whole entry): as the sequence (O14649 whole entry, looked up) above

[15] = target: T1, Potassium channel subfamily K member 9; experiment: Inhibition of human TASK3 expressed in HEK293 by whole cell voltage clamp assay; assay type: cell-based
[16] = target: Potassium channel subfamily K member 9 (Rattus norvegicus) (UniProt Q9ES08); experiment: Inhibition of rat TASK3 expressed in African green monkey COS7 cells at 1 mM by outside-out patches based electrophysiology assay relative to control; assay type: cell-based
[17] = target: T2, Potassium channel subfamily K member 3; experiment: Activation of human TASK1 expressed in African green monkey COS cells at 2 mM by whole cell patch clamp assay relative to control; assay type: cell-based
Target sequence in this assay (O14649 whole entry, looked up): as above

[18] = target: T4, Potassium channel subfamily K member 9; experiment: Inhibition of rat TASK3 expressed in (FRT) epithelial cells by chamber based electrophysiology assay; assay type: cell-based
[19] = target: T3, Potassium channel subfamily K member 3; experiment: Inhibition of rat TASK1 expressed in Xenopus oocytes by whole cell voltage clamp assay; assay type: cell-based
[20] = target: T4, Potassium channel subfamily K member 9; experiment: Inhibition of rat TASK3 expressed in Xenopus oocytes by whole cell voltage clamp assay; assay type: cell-based
[21] = target: T1, Potassium channel subfamily K member 9; details: 1 uM
Description: Inhibition of human TASK3 expressed in Xenopus oocytes at 1 uM by whole cell patch clamp assay relative to control

[22] = target: T1, Potassium channel subfamily K member 9; experiment: Activation of human TASK3 expressed in human tsA201 cells at 1 uM by whole cell patch clamp assay relative to control; assay type: cell-based
[23] = target: T5, Potassium channel subfamily K member 17 (Homo sapiens, UniProt Q96T54); experiment: Inhibition of human TASK4 expressed in CHO cells by Inside-out macro-patches based electrophysiology assay; assay type: cell-based
T5 sequence (Q96T54 whole entry): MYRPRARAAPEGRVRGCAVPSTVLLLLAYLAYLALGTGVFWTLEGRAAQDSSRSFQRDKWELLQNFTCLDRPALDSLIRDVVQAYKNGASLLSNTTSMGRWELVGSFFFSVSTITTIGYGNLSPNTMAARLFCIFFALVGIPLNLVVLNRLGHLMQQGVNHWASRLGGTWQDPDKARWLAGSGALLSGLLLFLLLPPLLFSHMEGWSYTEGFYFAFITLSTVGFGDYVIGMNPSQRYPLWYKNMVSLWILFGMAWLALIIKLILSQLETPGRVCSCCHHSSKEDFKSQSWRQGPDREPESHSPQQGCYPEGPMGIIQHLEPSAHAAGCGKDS

[24] = target: T6, Potassium channel subfamily K member 5 (Homo sapiens, UniProt O95279); experiment: Inhibition of human TASK2 expressed in CHO cells by Inside-out macro-patches based electrophysiology assay; assay type: cell-based
T6 sequence (O95279 whole entry): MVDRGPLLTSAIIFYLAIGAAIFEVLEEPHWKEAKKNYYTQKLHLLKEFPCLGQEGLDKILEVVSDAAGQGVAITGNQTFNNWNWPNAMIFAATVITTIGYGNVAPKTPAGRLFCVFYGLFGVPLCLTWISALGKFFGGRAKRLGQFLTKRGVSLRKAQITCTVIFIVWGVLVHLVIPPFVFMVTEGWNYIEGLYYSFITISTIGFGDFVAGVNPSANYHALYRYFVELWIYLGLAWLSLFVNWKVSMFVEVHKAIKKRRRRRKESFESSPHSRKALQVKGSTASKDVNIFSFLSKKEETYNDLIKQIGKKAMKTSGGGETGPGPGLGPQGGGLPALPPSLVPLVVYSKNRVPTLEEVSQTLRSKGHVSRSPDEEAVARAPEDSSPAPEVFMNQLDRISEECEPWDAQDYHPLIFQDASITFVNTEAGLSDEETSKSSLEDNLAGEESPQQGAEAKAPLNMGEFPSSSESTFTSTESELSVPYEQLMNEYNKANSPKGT

[25] = target: T1, Potassium channel subfamily K member 9; experiment: Inhibition of human TASK3 expressed in CHO cells by Inside-out macro-patches based electrophysiology assay; assay type: cell-based
[26] = organism: Homo sapiens; experiment: Selectivity index, ratio of IC50 for Kv1.5 channel (unknown origin) to IC50 for inhibition of human TASK1 expressed in Xenopus oocytes by whole cell voltage clamp assay; assay type: cell-based

T1 sequence (Q9NPC2 whole entry): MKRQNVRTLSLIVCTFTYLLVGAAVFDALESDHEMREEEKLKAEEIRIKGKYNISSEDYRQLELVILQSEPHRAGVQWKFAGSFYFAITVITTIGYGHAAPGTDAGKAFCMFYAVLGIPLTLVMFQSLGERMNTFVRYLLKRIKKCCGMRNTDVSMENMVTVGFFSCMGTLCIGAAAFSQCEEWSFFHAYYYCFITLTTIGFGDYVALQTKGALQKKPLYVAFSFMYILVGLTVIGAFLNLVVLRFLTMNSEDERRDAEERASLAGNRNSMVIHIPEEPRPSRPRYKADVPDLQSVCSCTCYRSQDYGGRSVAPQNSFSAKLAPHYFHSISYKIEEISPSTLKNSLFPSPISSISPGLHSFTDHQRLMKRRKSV

O=C(NCCNc1ccc([N+](=O)[O-])cc1C(F)(F)F)c1ccccc1
fold change (FC) [1]: 6

FC(F)(F)C(Cl)Br (stereo not given)
Activity [2]: 65.6% | Activity [3]: 60% | Activity [4]: > 60%

CCCCS(=O)(=O)Nc1ccccc1C(=O)NC(CC)c1ccc(OC)nc1 (stereo not given)
IC50 [5]: 0.222 µM | IC50 [6]: 0.95 µM | IC50 [7]: 0.22 µM

CCc1ccc(S(=O)(=O)NC2c3cc(NC(=O)c4cccc(OC)c4)ccc3CC2O)cc1 (stereo not given)
IC50 [5]: 1.05 µM

CCOC(=O)c1c(-c2cccc(N)c2)c(C)n2c1-c1cc(OC)c(OC)cc1CC2
IC50 [6]: 268 µM

CC[C@@H]1/C=C/C=C/C[C@H](C)[C@@H](O)[C@](C)(O)C(=O)[C@H](C)[C@@H](O)[C@H](C)C(=O)[C@H](C)[C@@H](O)[C@H](C)/C=C/C(=O)O[C@H]2[C@@H](C)[C@@H](CC1)O[C@@]1(CC[C@@H](C)[C@@H](C[C@H](C)O)O1)[C@@H]2C
IC50 [8]: 47.7 µM

CCCCC/C=C\C/C=C\C/C=C\C/C=C\CCCC(=O)NCCO [ANANDAMIDE]
IC50 [9]: 3 µM

CN1CCN(C2Cc3ccccc3Sc3ccc(Cl)cc32)CC1 (racemic)
IC50 [8]: 73.8 µM

Ic1ccccc1CN[C@@H]1C2CCN(CC2)[C@@H]1C(c1ccccc1)c1ccccc1
IC50 [8]: 45.5 µM

CCCCN1CCCCC1C(=O)Nc1c(C)cccc1C (stereo not given) [BUPIVACAINE]
IC50 [5]: 41 µM | inhibition [10]: 56% | IC50 [11]: 41 to 68 µM | IC50 [12]: 100 µM

CCOC(=O)c1c(-c2cccs2)c(C)n2c1-c1cc(OC)c(OC)cc1CC2
IC50 [5]: 96.7 µM

CCOC(=O)c1cc(C)n2c1-c1cc(OC)c(OC)cc1CC2
IC50 [5]: 83.5 µM

CCOCC
inhibition [13]: 40%

CCCCC/C=C\C/C=C\C/C=C\C/C=C\CCCC(=O)N[C@H](C)CO [METHANANDAMIDE]
IC50 [14]: 0.1 µM

CN1CCN(C2Cc3ccccc3Sc3ccc(Cl)cc32)CC1 (stereo not given) [CLOROTEPINE]
IC50 ([8]; hek293): 73.8 µM

CCCCNc1ccc(C(=O)OCCN(C)C)cc1 [TETRACAINE]
IC50 [5]: 668 µM

CCCN(CC)C(CC)C(=O)Nc1c(C)cccc1C (stereo not given) [ETIDOCAINE]
IC50 [5]: 39 µM

C=C[C@H]1CN2CC[C@H]1C[C@@H]2[C@@H](O)c1ccnc2ccc(OC)cc12
inhibition [10]: 37%

COCC(=O)O[C@]1(CCN(C)CCCc2nc3ccccc3[nH]2)CCc2cc(F)ccc2[C@@H]1C(C)C [MIBEFRADIL DIHYDROCHLORIDE]
IC50 ([8]; hek293): 24.6 µM

CC(C1CC2CCC1C2)n1c(S)nnc1-c1ccco1 (stereo not given)
IC50 [7]: 3.2 µM | IC50 [15]: 0.413 µM

CC[C@H](C)C(=O)O[C@H]1CCC=C2C=C[C@H](C)[C@H](CC[C@@H]3C[C@@H](O)CC(=O)O3)[C@H]21 [MEVASTATIN]
IC50 [8]: 159 µM

O=C(NCc1ccccc1-c1ccccc1C(=O)NCCc1ccccn1)OCc1ccccc1
IC50 [5]: 0.2 µM

COc1ccc(CC(=O)NCc2ccccc2-c2ccccc2C(=O)NCCc2cccnc2)cc1
IC50 [5]: 0.6 µM

CCN(CC)CC(=O)Nc1c(C)cccc1C [LIDOCAINE]
IC50 [5]: 222 µM | inhibition [16]: 62%

CN(C)c1cc2c(Nc3ccc4c(cnn4Cc4ccccc4)c3)ncnc2cn1 [GW282974X]
IC50 [8]: 50.1 µM

COc1cc2c(cc1OC)-c1c(C#N)c(-c3ccccc3)c(C)n1CC2
IC50 [6]: 189 µM

COc1ccc(-n2nc(Sc3ccc(C)cc3)c(C)c(C#N)c2=O)cc1
IC50 [5]: 0.35 µM

CCOC(=O)N1CCC(=C2c3ccc(Cl)cc3CCc3cccnc32)CC1 [LORATADINE]
IC50 ([8]; hek293): 63.4 µM

FC(F)OC(Cl)C(F)(F)F (stereo not given)
Activity [17]: 25%

CCCN1CCCC[C@H]1C(=O)Nc1c(C)cccc1C [ROPIVACAINE]
IC50 [5]: 53 µM

CCN1CC(CCN2CCOCC2)C(c2ccccc2)(c2ccccc2)C1=O (stereo not given) [DOXAPRAM]
IC50 [18]: 16 µM | IC50 [19]: 0.41 µM | IC50 [20]: 37 µM

CCCC(=O)C1CCN(c2ncnc3c2CN(C(=O)c2ccc(-c4ccccc4)cc2)CC3)CC1
IC50 [18]: 0.01 µM

CCCN1CCCC[C@@H]1C(=O)Nc1c(C)cccc1C
IC50 [5]: 51 µM

CC[N+](CC)(CC)CC
inhibition [21]: 6.1%

Cc1cccc(C)c1NC(=O)C1CCCCN1C (stereo not given) [MEPIVACAINE]
IC50 [5]: 709 µM

CN(C/C=C/C#CC(C)(C)C)Cc1cccc2ccccc12
Activity [22]: 30%

[Cl-].[Cs+]
Activity [2]: 7.7%

COc1ccc(CC(=O)NCc2ccccc2-c2ccccc2C(=O)NCc2ccc(F)cc2F)cc1
IC50 [18]: 0.036 µM | IC50 [23]: 8.1 µM | IC50 [24]: 12 µM | IC50 [25]: 0.07 µM | IC50 [5]: 0.035 µM | IC50 [6]: 0.318 µM | Ratio IC50 [26]: 68
